Assay results published in article PMC9318203, “Squaramide-Tethered Sulfonamides and Coumarins: Synthesis, Inhibition of Tumor-Associated CAs IX and XII and Docking Simulations” (International Journal of Molecular Sciences, 2022).
Values joined by “and” are separate entries in the source; they are usually repeats but may differ in a detail not shown here. Equal values may be shown once.

How the values were obtained:
hCA II = molecular target: T1, hCA II (Homo sapiens, UniProt P00918); assay: stopped-flow CO2 hydrase assay, hCA II; format: biochemical
T1 construct: made in house
Description: (§1) For that purpose, the stopped-flow CO2 hydration assay was used (Table 1).
(§2) The inhibitory properties of title compounds against CAs were determined using the stopped-flow CO2 hydrase assay, as previously reported.

hCA XII = molecular target: T2, hCA XII (Homo sapiens, UniProt O43570); assay: stopped-flow CO2 hydrase assay, hCA XII; format: biochemical; conditions: for S.I. I/XII: Ki (CA I)/Ki (CA XII); for S.I. II/XII: Ki (CA II)/Ki (CA XII)
T2 construct: made in house
T2 sequence (O43570 25-354): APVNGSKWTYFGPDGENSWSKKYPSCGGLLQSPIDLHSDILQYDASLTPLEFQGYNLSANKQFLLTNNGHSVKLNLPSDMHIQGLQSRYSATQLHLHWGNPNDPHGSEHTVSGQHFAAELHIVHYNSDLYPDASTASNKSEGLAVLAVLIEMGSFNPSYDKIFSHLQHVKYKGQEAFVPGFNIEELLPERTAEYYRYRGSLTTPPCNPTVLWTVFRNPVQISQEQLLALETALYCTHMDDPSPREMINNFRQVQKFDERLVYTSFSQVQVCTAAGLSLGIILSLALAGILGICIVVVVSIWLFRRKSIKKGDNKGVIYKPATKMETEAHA
Description: as §1, §2

hCA IX = molecular target: T3, hCA IX (Homo sapiens, UniProt Q16790); assay: stopped-flow CO2 hydrase assay, hCA IX; format: biochemical; conditions: for S.I. I/IX: Ki (CA I)/Ki (CA IX); for S.I. II/IX: Ki (CA II)/Ki (CA IX)
T3 construct: made in house
Description: as §1, §2

hCA I = molecular target: T4, hCA I (Homo sapiens, UniProt P00915); assay: stopped-flow CO2 hydrase assay, hCA I; format: biochemical
T4 construct: made in house
T4 sequence (P00915 whole entry): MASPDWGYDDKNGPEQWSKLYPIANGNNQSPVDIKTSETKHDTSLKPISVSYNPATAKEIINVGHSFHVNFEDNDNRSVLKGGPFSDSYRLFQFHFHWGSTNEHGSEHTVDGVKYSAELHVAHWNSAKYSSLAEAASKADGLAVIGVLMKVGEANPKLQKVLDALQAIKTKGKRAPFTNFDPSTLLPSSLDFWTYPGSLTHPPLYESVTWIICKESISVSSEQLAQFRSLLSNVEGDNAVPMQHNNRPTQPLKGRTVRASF
Description: as §1, §2

[1] = coumarin-containing squaramides, incubation time 6 h, mean from three assays
[2] = sulfonamido-containing squaramides, mean from 3 assays, stopped flow

| SMILES | Ki (hCA II; [1]) [nM] | Ki (hCA XII; [1]) [nM] | fold decreased activity compared with 16b, CA XII (hCA XII; vs 16b) | melting point [°C] | Ki (hCA IX; [1]) [nM] | fold decreased activity compared with 16b, CA IX (hCA IX; vs 16b) | Ki (hCA I; [1]) [nM] | Ki (hCA II; [2]) [nM] | S.I. I/XII (hCA XII) | S.I. II/XII (hCA XII) | Ki (hCA XII; [2]) | S.I. I/IX (hCA IX) | S.I. II/IX (hCA IX) | Ki (hCA IX; [2]) [nM] | Ki (hCA I; [2]) [nM] | S.I. (range of the selectivity indexes) (hCA IX; range over I/IX, I/XII, II/IX, II/XII) |
| --- | --- | --- | --- | --- | --- | --- | --- | --- | --- | --- | --- | --- | --- | --- | --- | --- |
| O=c1cc(-c2ccccc2)c2ccc(OCCCCCNc3c(Nc4ccccc4)c(=O)c3=O)cc2o1 [Compound 16p, 3-Phenylamino-4-{[5′-(4″-Phenyl-2″-oxo-2″H-chromen-7″-yl)oxypentyl]amino}cyclobut-3-ene-1,2-dione] | > 10000 | 87.9 | roughly 6.1 fold | 209 to 210 | 267 | roughly 6.1 fold | > 10000 |  |  |  |  |  |  |  |  |  |
| Cc1c(C)c2ccc(OCCCCCNc3c(Nc4ccc(I)cc4)c(=O)c3=O)cc2oc1=O [Compound 16o, 3-{[5′-(3″,4″-Dimethyl-2″-oxo-2″H-chromen-7″-yl)oxypentyl]amino}-4-(4‴-iodophenylamino)cyclobut-3-ene-1,2-dione] | > 10000 | 50.8 |  | > 250 | 92.1 |  | > 10000 |  |  |  |  |  |  |  |  |  |
| Cc1c(C)c2ccc(OCCCCCNc3c(Nc4ccc(Br)cc4)c(=O)c3=O)cc2oc1=O [Compound 16n, 3-[(4′-Bromophenyl)amino]-4-{[5″-(3‴,4‴-dimethyl-2‴-oxo-2‴H-chromen-7″-yl)oxypentyl]amino}cyclobut-3-ene-1,2-dione] | > 10000 | 69.6 |  |  | 132 |  | > 10000 |  |  |  |  |  |  |  |  |  |
| Cc1cc(=O)oc2cc(OCCCCCCCCCCCCNc3c(Nc4ccccc4)c(=O)c3=O)ccc12 [Compound 16d, 3-{[12′-((4″-Methyl-2″-oxo-2″H-chromen-7″-yl)oxy)dodecyl]amino}-4-phenylaminocyclobut-3-ene-1,2-dione] | > 10000 | 7.91 |  | 178 to 179 | 18.1 |  | > 10000 |  |  |  |  |  |  |  |  |  |
| NS(=O)(=O)c1ccc(CCNc2c(Nc3ccccc3)c(=O)c2=O)cc1 [Compound 5a, 3-Phenylamino-4-[2′-(4″-sulfonamidophenyl)ethylamino]cyclobut-3-ene-1,2-dione] |  |  |  | > 250 |  |  |  | 720 | 2.2 | 7.4 | 96.8 nM | 2.8 | 9.6 | 75.3 | 211 |  |
| NS(=O)(=O)c1ccc(Nc2c(Nc3ccccc3)c(=O)c2=O)cc1 [Compound 8, 3-Phenylamino-4-[4′-(sulfonamidophenyl)]aminocyclobut-3-ene-1,2-dione] |  |  |  | > 250 |  |  |  | 65.9 | 15 | 10 | 6.57 nM | 5.0 | 3.4 | 19.5 | 98 |  |
| Cc1c(C)c2ccc(OCCCCCNc3c(Nc4ccc(F)cc4)c(=O)c3=O)cc2oc1=O [Compound 16l, 3-{[5′-(3″,4″-Dimethyl-2″-oxo-2″H-chromen-7″-yl)oxypentyl]amino}-4-(4‴-fluorophenylamino)cyclobut-3-ene-1,2-dione] | > 10000 | 62.9 |  | > 250 | 113 |  | > 10000 |  |  |  |  |  |  |  |  |  |
| Cc1cc(=O)oc2cc(OCCCCCNc3c(Nc4ccc(Cl)cc4)c(=O)c3=O)ccc12 [Compound 16g, 3-[(4′-Chlorophenyl)amino]-4-{[5″-(4‴-methyl-2‴-oxo-2‴H-chromen-7‴-yl)oxypentyl]amino}cyclobut-3-ene-1,2-dione] | > 10000 | 24.4 |  | 225 to 227 | 65.3 |  | > 10000 |  |  |  |  |  |  |  |  |  |
| Cc1cc(=O)oc2cc(OCCCCCCCCCNc3c(Nc4ccccc4)c(=O)c3=O)ccc12 [Compound 16c, 3-{[9′-((4″-Methyl-2″-oxo-2″H-chromen-7″-yl)oxy)nonyl]amino}-4-phenylaminocyclobut-3-ene-1,2-dione] | > 10000 | 7.23 |  | 200 to 201 | 19.2 |  | > 10000 |  |  |  |  |  |  |  |  |  |
| COc1ccc(Nc2c(NCCCCCOc3ccc4c(C)c(C)c(=O)oc4c3)c(=O)c2=O)cc1 [Compound 16k, 3-{[5′-(3″,4″-Dimethyl-2″-oxo-2″H-chromen-7″-yl)oxypentyl]amino}-4-(4‴-methoxyphenylamino)cyclobut-3-ene-1,2-dione] | > 10000 | 45.4 |  | > 250 | 86.5 |  | > 10000 |  |  |  |  |  |  |  |  |  |
| Cc1cc(=O)oc2cc(OCCCNc3c(Nc4ccccc4)c(=O)c3=O)ccc12 [Compound 16a, 3-{[3′-((4″-Methyl-2″-oxo-2″H-chromen-7″-yl)oxy)propyl]amino}-4-phenylaminocyclobut-3-ene-1,2-dione] | > 10000 | 42.1 |  | > 250 | 79.3 |  | > 10000 |  |  |  |  |  |  |  |  |  |
| Cc1c(C)c2ccc(OCCCCCNc3c(Nc4ccc(Cl)cc4)c(=O)c3=O)cc2oc1=O [Compound 16m, 3-[(4′-Chlorophenyl)amino]-4-{[5″-(3‴,4‴-dimethyl-2‴-oxo-2‴H-chromen-7‴-yl)oxypentyl]amino}cyclobut-3-ene-1,2-dione] | > 10000 | 43 |  | > 250 | 96.6 |  | > 10000 |  |  |  |  |  |  |  |  |  |
| COc1ccc(Nc2c(NCCc3ccc(S(N)(=O)=O)cc3)c(=O)c2=O)cc1 [Compound 5b, 3-(p-Methoxyphenyl)amino-4-[2′-(4″-sulfonamidophenyl)ethylamino]cyclobut-3-ene-1,2-dione] |  |  |  | > 250 |  |  |  | 724 | 2.4 | 4.6 | 158 nM | 4.0 | 7.8 | 92.5 | 373 |  |
| NS(=O)(=O)c1cccc(Nc2c(Nc3ccccc3)c(=O)c2=O)c1 [Compound 11] |  |  |  |  |  |  |  | 95.5 | 63 | 10 | 9.5 nM and 9.15 nM | 20 | 3.2 | 29.4 | 580 |  |
| NS(=O)(=O)c1ccc(CCNc2c(Nc3ccc(I)cc3)c(=O)c2=O)cc1 [Compound 5e, 3-(p-Iodophenyl)amino-4-[2′-(4″-sulfonamidophenyl)ethylamino]cyclobut-3-ene-1,2-dione] |  |  |  | > 250 |  |  |  | 856 | 5.2 | 9.5 | 90.3 nM | 5.1 | 9.2 | 92.7 | 471 |  |
| NS(=O)(=O)c1ccc(CCNc2c(Nc3ccc(Br)cc3)c(=O)c2=O)cc1 [Compound 5d, 3-(p-Bromophenyl)amino-4-[2′-(4″-sulfonamidophenyl)ethylamino]cyclobut-3-ene-1,2-dione] |  |  |  | > 250 |  |  |  | 910 | 5.3 | 11 | 85.5 nM | 6.8 | 14 | 67.6 | 457 | 6.8–14 |
| Cc1c(C)c2ccc(OCCCCCNc3c(Nc4ccccc4)c(=O)c3=O)cc2oc1=O [Compound 16j, 3-{[5′-((3″,4″-Dimethyl-2″-oxo-2″H-chromen-7″-yl)oxy)pentyl]amino}-4-phenylaminocyclobut-3-ene-1,2-dione] | > 10000 | 58.3 |  | > 250 | 107 |  | > 10000 |  |  |  |  |  |  |  |  |  |
| COc1c(Nc2cccc(S(N)(=O)=O)c2)c(=O)c1=O [Compound 10, 3-Methoxy-4-[3′-(sulfonamidophenyl)]aminocyclobut-3-ene-1,2-dione] |  |  |  |  |  |  |  | 40.9 | 14 | 7.1 | 5.78 nM | 3.0 | 1.6 | 26.2 | 79.9 |  |
